Several values for one entry are separate records, joined by “and”; a condition that tells them apart may be missing. Identical values can stand only once.
What was measured:
Experiment in all cases: NCI one-dose screen
Type in all cases: cell-based, human
ACHN = conditions: Renal ACHN, 10 µM single dose
Method in brief: (§1)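 At 10 μM, a single concentration, compounds were evaluated for antiproliferative effect in the NCI 60-line screen, with growth expressed relative to untreated control cells.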

CCRF-CEM = conditions: Leukemia CCRF-CEM, 10 µM single dose
Method in brief: as §1

MCF7 = conditions: Breast MCF7, 10 µM single dose
Method in brief: (§2)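 Following the standard NCI-60 protocol, compounds were applied once at 10 μM to all 60 cancer lines. Read-out is percent growth versus untreated controls, expressed as inhibition %.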

SNB-75 = conditions: CNS SNB-75, 10 µM single dose
Method in brief: (§3)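 Single 10 μM dose, NCI-60 panel; read-out = % growth vs untreated controls → % inhibition.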

IGROV1 = conditions: Ovarian IGROV1, 10 µM single dose
Method in brief: as §1

EKVX = conditions: NSCLC EKVX, 10 µM single dose
Method in brief: as §3

DU-145 = conditions: Prostate DU-145, 10 µM single dose
Method in brief: as §1

OVCAR-5 = conditions: Ovarian OVCAR-5, 10 µM single dose
Method in brief: as §1

NCI-H460 = conditions: NSCLC NCI-H460, 10 µM single dose
Method in brief: as §1

K-562 = conditions: Leukemia K-562, 10 µM single dose
Method in brief: as §1

HCT-15 = conditions: Colon HCT-15, 10 µM single dose
Method in brief: as §1

NCI/ADR-RES = conditions: Ovarian NCI/ADR-RES, 10 µM single dose
Method in brief: as §1

SK-MEL-28 = conditions: Melanoma SK-MEL-28, 10 µM single dose
Method in brief: as §2

SNB-19 = conditions: CNS SNB-19, 10 µM single dose
Method in brief: (§4)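 One concentration (10 μM) applied to each line of the full NCI-60 panel; percent growth compared against untreated cells.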

M14 = conditions: Melanoma M14, 10 µM single dose
Method in brief: as §1

OVCAR-4 = conditions: Ovarian OVCAR-4, 10 µM single dose
Method in brief: as §1

COLO 205 = conditions: Colon COLO 205, 10 µM single dose
Method in brief: as §1

786-0 = conditions: Renal 786-0, 10 µM single dose
Method in brief: as §1

HCT-116 = conditions: Colon HCT-116, 10 µM single dose
Method in brief: as §1

HCC-2998 = conditions: Colon HCC-2998, 10 µM single dose
Method in brief: as §1

OVCAR-3 = conditions: Ovarian OVCAR-3, 10 µM single dose
Method in brief: as §1

NCI-H23 = conditions: NSCLC NCI-H23, 10 µM single dose
Method in brief: as §2

RXF 393 = conditions: Renal RXF 393, 10 µM single dose
Method in brief: as §1

MDA-MB-231/ATCC = conditions: Breast MDA-MB-231/ATCC, 10 µM single dose
Method in brief: as §1

SF-268 = conditions: CNS SF-268, 10 µM single dose
Method in brief: as §2

HL-60(TB) = conditions: Leukemia HL-60(TB), 10 µM single dose
Method in brief: as §1

U251 = conditions: CNS U251, 10 µM single dose
Method in brief: as §3

SK-MEL-5 = conditions: Melanoma SK-MEL-5, 10 µM single dose
Method in brief: as §1

MDA-MB-468 = conditions: Breast MDA-MB-468, 10 µM single dose
Method in brief: as §2

NCI-H522 = conditions: NSCLC NCI-H522, 10 µM single dose
Method in brief: as §3

LOX IMVI = conditions: Melanoma LOX IMVI, 10 µM single dose
Method in brief: as §1

RPMI-8226 = conditions: Leukemia RPMI-8226, 10 µM single dose
Method in brief: as §1

BT-549 = conditions: Breast BT-549, 10 µM single dose
Method in brief: as §1

SF-539 = conditions: CNS SF-539, 10 µM single dose
Method in brief: as §2

SK-MEL-2 = conditions: Melanoma SK-MEL-2, 10 µM single dose
Method in brief: as §4

KM12 = conditions: Colon KM12, 10 µM single dose
Method in brief: as §2

CAKI-1 = conditions: Renal CAKI-1, 10 µM single dose
Method in brief: as §1

SMILES	Growth Percent (ACHN)	Growth Percent (CCRF-CEM)	Growth Percent (MCF7)	Growth Percent (SNB-75)	Growth Percent (IGROV1)	Growth Percent (EKVX)	Growth Percent (DU-145)	Growth Percent (OVCAR-5)	Growth Percent (NCI-H460)	Growth Percent (K-562)	Growth Percent (HCT-15)	Growth Percent (NCI/ADR-RES)	Growth Percent (SK-MEL-28)	Growth Percent (SNB-19)	Growth Percent (M14)	Growth Percent (OVCAR-4)	Growth Percent (COLO 205)	Growth Percent (786-0)	Growth Percent (HCT-116)	Growth Percent (HCC-2998)	further results
Cc1c(C(=O)NCCC(=O)NO)sc2ncnc(Nc3ccccc3)c12 [Compound 19b, N-(3-(hydroxyamino)-3-oxopropyl)-5-methyl-4-(phenylamino)thieno[2,3-d]pyrimidine-6-carboxamide]	106.3% and 106.37%	101.13%	92.3% and 92.31%	81.4% and 81.46%	101.8% and 101.82%	87.3% and 87.34%	108.0% and 108.08%	102.0% and 102.09%	100.8% and 100.82%	101.9% and 101.92%	95.0% and 95.07%	97.2% and 97.26%	107.9% and 107.91%	99.8% and 99.82%	106.1% and 106.19%	104.9% and 104.94%	110.7% and 110.74%	102.5% and 102.58%	105.6% and 105.69%	97.7%	Growth Percent (OVCAR-3): 115.3% and 115.34%; Growth Percent (NCI-H23): 95.7% and 95.71%; Growth Percent (RXF 393): 94.1% and 94.17%; Growth Percent (MDA-MB-231/ATCC): 101.7% and 101.73%; Growth Percent (SF-268): 97.0%; Growth Percent (HL-60(TB)): 103.7%; Growth Percent (U251): 101.5% and 101.54%; Growth Percent (SK-MEL-5): 94.4% and 94.42%; Growth Percent (MDA-MB-468): 92.2% and 92.23%; Growth Percent (NCI-H522): 90.5% and 90.58%; Growth Percent (LOX IMVI): 93.7%; Growth Percent (RPMI-8226): 103.3% and 103.33%; Growth Percent (BT-549): 109.1% and 109.16%; Growth Percent (SF-539): 93.6% and 93.63%; Growth Percent (SK-MEL-2): 108.6% and 108.65%; Growth Percent (KM12): 101.9% and 101.98%; Growth Percent (CAKI-1): 96.2% and 96.21%
Cc1c(C(=O)NCCC(=O)NO)sc2ncnc(Nc3ccc(Cl)cc3)c12 [Compound 19c, 4–(4-chlorophenylamino)-N-(3-(hydroxyamino)-3-oxopropyl)-5-methylthieno[2,3-d]pyrimidine-6-carboxamide]	106.8% and 106.82%	104.7% and 104.72%	93.4%	91.7% and 91.75%	105.4% and 105.45%	98.4% and 98.49%	114.2%	110.3% and 110.34%	100.4% and 100.45%	106.4% and 106.41%	99.7% and 99.76%	105.4% and 105.48%	112.1%	103.7% and 103.73%	107.9% and 107.96%	112.3% and 112.39%	115.7% and 115.76%	104.9% and 104.99%	102.1% and 102.16%	105.3% and 105.39%	Growth Percent (OVCAR-3): 110.3% and 110.31%; Growth Percent (NCI-H23): 102.7%; Growth Percent (RXF 393): 109.2% and 109.21%; Growth Percent (MDA-MB-231/ATCC): 104.1% and 104.18%; Growth Percent (SF-268): 97.6% and 97.68%; Growth Percent (HL-60(TB)): 104.5% and 104.56%; Growth Percent (U251): 104.8% and 104.84%; Growth Percent (SK-MEL-5): 102.4% and 102.44%; Growth Percent (MDA-MB-468): 119.7% and 119.73%; Growth Percent (NCI-H522): 90.0% and 90.06%; Growth Percent (LOX IMVI): 98.8% and 98.82%; Growth Percent (RPMI-8226): 105.4% and 105.48%; Growth Percent (BT-549): 103.5% and 103.54%; Growth Percent (SF-539): 99.0%; Growth Percent (SK-MEL-2): 101.8% and 101.81%; Growth Percent (KM12): 102.0% and 102.09%; Growth Percent (CAKI-1): 90.4% and 90.48%
Cc1c(C(=O)NCCC(=O)NO)sc2ncnc(Nc3ccc(F)c(Cl)c3)c12 [Compound 19d, 4–(3-chloro-4-fluorophenylamino)-N-(3-(hydroxyamino)-3-oxopropyl)-5-methylthieno[2,3-d]pyrimidine-6-carboxamide]	102.1% and 102.14%	105.2% and 105.23%	95.1% and 95.18%	97.5%	106.2% and 106.28%	99.4% and 99.43%	111.2% and 111.26%	108.4% and 108.42%	100.4% and 100.44%	113.3%	101.5% and 101.58%	101.4% and 101.46%	111.5% and 111.54%	98.9% and 98.91%	104.7% and 104.71%	108.8% and 108.82%	117.3% and 117.34%	105.3% and 105.34%	107.3%	104.7% and 104.72%	Growth Percent (OVCAR-3): 106.5%; Growth Percent (NCI-H23): 100.6%; Growth Percent (RXF 393): 102.0% and 102.06%; Growth Percent (MDA-MB-231/ATCC): 102.5% and 102.53%; Growth Percent (SF-268): 96.4% and 96.48%; Growth Percent (HL-60(TB)): 102.8%; Growth Percent (U251): 102.2% and 102.27%; Growth Percent (SK-MEL-5): 101.8% and 101.85%; Growth Percent (MDA-MB-468): 102.7% and 102.77%; Growth Percent (NCI-H522): 95.5% and 95.56%; Growth Percent (LOX IMVI): 98.8% and 98.84%; Growth Percent (RPMI-8226): 110.0% and 110.01%; Growth Percent (BT-549): 113.9% and 113.96%; Growth Percent (SF-539): 98.0% and 98.02%; Growth Percent (SK-MEL-2): 100.6% and 100.61%; Growth Percent (KM12): 103.8% and 103.84%; Growth Percent (CAKI-1): 96.6% and 96.62%

— publication PMC8253220, “Molecular design, synthesis and in vitro biological evaluation of thienopyrimidine–hydroxamic acids as chimeric kinase HDAC inhibitors: a challenging approach to combat cancer” (Journal of Enzyme Inhibition and Medicinal Chemistry, 2021)
